Test results published in patent US10285979B2, “Breast cancer therapeutic agent containing 5′-hydroxy-5-nitro-indirubin-3′-oxime as active ingredient” (ANYGEN CO., LTD., priority 2016, dated 2019).

How the values were obtained:
A549/ATCC = details: 10 μM; non-small cell lung cancer cell line A549/ATCC
Excerpt: (§1) If the growth percent is 0%, it means that no further growth of cancer cells occurs, which is an ideal case.

BT-549 = details: 10 μM; breast cancer cell line BT-549
Excerpt: as §1

CCRE-CEM = details: 10 μM; leukemia cell line CCRE-CEM
Excerpt: as §1

COLO 205 = details: 10 μM; colorectal cancer cell line COLO 205
Excerpt: as §1

HCT-15 = details: 10 μM; colorectal cancer cell line HCT-15
Excerpt: as §1

HOP-62 = details: 10 μM; non-small cell lung cancer cell line HOP-62
Excerpt: as §1

HOP-92 = details: 10 μM; non-small cell lung cancer cell line HOP-92
Excerpt: as §1

HS 578T = details: 10 μM; breast cancer cell line HS 578T
Excerpt: as §1

HT29 = details: 10 μM; colorectal cancer cell line HT29
Excerpt: as §1

IGROV1 = details: 10 μM; ovarian cancer cell line IGROV1
Excerpt: as §1

K-562 = details: 10 μM; leukemia cell line K-562
Excerpt: as §1

M14 = details: 10 μM; malignant melanoma cell line M14
Excerpt: as §1

MCF-7 = details: 10 μM; breast cancer cell line MCF-7
Excerpt: as §1

MDA-MB-231 = details: 10 μM; breast cancer cell line MDA-MB-231
Excerpt: as §1

NCI-H226 = details: 10 μM; non-small cell lung cancer cell line NCI-H226
Excerpt: as §1

NCI-H460 = details: 10 μM; non-small cell lung cancer cell line NCI-H460
Excerpt: as §1

NCI-H522 = details: 10 μM; non-small cell lung cancer cell line NCI-H522
Excerpt: as §1

OVCAR-3 = details: 10 μM; ovarian cancer cell line OVCAR-3
Excerpt: as §1

OVCAR-4 = details: 10 μM; ovarian cancer cell line OVCAR-4
Excerpt: as §1

OVCAR-5 = details: 10 μM; ovarian cancer cell line OVCAR-5
Excerpt: as §1

PC-3 = details: 10 μM; prostate cancer cell line PC-3
Excerpt: as §1

RPMI-8226 = details: 10 μM; leukemia cell line RPMI-8226
Excerpt: as §1

SF-268 = details: 10 μM; CNS cancer cell line SF-268
Excerpt: as §1

SF-295 = details: 10 μM; CNS cancer cell line SF-295
Excerpt: as §1

SF-539 = details: 10 μM; CNS cancer cell line SF-539
Excerpt: as §1

SK-MEL-4 = details: 10 μM; malignant melanoma cell line SK-MEL-4
Excerpt: as §1

SN12C = details: 10 μM; renal cell carcinoma cell line SN12C
Excerpt: as §1

SNB-19 = details: 10 μM; CNS cancer cell line SNB-19
Excerpt: as §1

SNB-75 = details: 10 μM; CNS cancer cell line SNB-75
Excerpt: as §1

SR = details: 10 μM; leukemia cell line SR
Excerpt: as §1

TK-10 = details: 10 μM; renal cell carcinoma cell line TK-10
Excerpt: as §1

U251 = details: 10 μM; CNS cancer cell line U251
Excerpt: as §1

UO-31 = details: 10 μM; renal cell carcinoma cell line UO-31
Excerpt: as §1

HL-60(TB) = details: 10 μM; leukemia cell line HL-60(TB)
[1] = test system: triple negative cell lines; details: 7 of 10 types of triple negative cell lines

## O=C1Nc2ccc([N+](=O)[O-])cc2C1=C1Nc2ccc(O)cc2C1=NO [AGM-130, (2′Z 3′E)-5′-hydroxy-5-nitro indirubin oxime]
A549/ATCC
  Growth percent: 10.64%
BT-549
  Growth percent: 4.59%
CCRE-CEM
  Growth percent: 0.49%
COLO 205
  Growth percent: 65.80%
HCT-15
  Growth percent: 10.28%
HOP-62
  Growth percent: −9.77%
HOP-92
  Growth percent: −3.09%
HS 578T
  Growth percent: 1.21%
HT29
  Growth percent: 69.21%
IGROV1
  Growth percent: 6.36%
K-562
  Growth percent: 20.90%
M14
  Growth percent: 11.37%
MCF-7
  Growth percent: 2.75%
MDA-MB-231
  Growth percent: 25.45%
NCI-H226
  Growth percent: −4.70%
NCI-H460
  Growth percent: −28.47%
NCI-H522
  Growth percent: −79.07%
OVCAR-3
  Growth percent: 4.31%
OVCAR-4
  Growth percent: 19.65%
OVCAR-5
  Growth percent: 11.33%
PC-3
  Growth percent: 2.12%
RPMI-8226
  Growth percent: −7.92%
SF-268
  Growth percent: 6.50%
SF-295
  Growth percent: 20.93%
SF-539
  Growth percent: −34.15%
SK-MEL-4
  Growth percent: −40.95%
SN12C
  Growth percent: 23.68%
SNB-19
  Growth percent: 17.47%
SNB-75
  Growth percent: −28.05%
SR
  Growth percent: 0.38%
TK-10
  Growth percent: 49.89%
U251
  Growth percent: 0.60%
UO-31
  Growth percent: −1.14%
HL-60(TB)
  Growth percent: 3.67%
[1]
  IC50: < 1000 nM
